Reference: ChEMBL document CHEMBL2401671, “Nucleic acid changes during photodynamic inactivation of bacteria by cationic porphyrins” (Bioorg Med Chem, 2013)
The source made the active and inactive calls. The rule behind the calls is not given here.

Tests used:
Staphylococcus warneri [1] = experiment: Photodynamic inactivation of Staphylococcus warneri assessed as reduction in cell survival at 0.5 uM preincubated for 10 mins followed by visible light irradiation for 15 mins; format: functional
Staphylococcus warneri [2] = experiment: Photodynamic inactivation of Staphylococcus warneri assessed as reduction in cell survival at 0.5 uM preincubated for 10 mins followed by visible light irradiation at 5 J cm'-2 light dose; format: functional
Escherichia coli [3] = experiment: Photodynamic inactivation of Escherichia coli ATCC 25922 assessed as reduction in cell survival at 5 uM preincubated for 10 mins followed by visible light irradiation for 270 mins; format: functional
Staphylococcus warneri [4] = experiment: Photodynamic inactivation of Staphylococcus warneri assessed as reduction in cell survival at 0.5 uM preincubated for 10 mins followed by visible light irradiation for 10 mins; format: functional
Staphylococcus warneri [5] = experiment: Photodynamic inactivation of Staphylococcus warneri assessed as reduction in cell survival at 0.5 uM preincubated for 10 mins followed by visible light irradiation for 40 mins; format: functional
Staphylococcus warneri [6] = experiment: Photodynamic inactivation of Staphylococcus warneri assessed as reduction in genomic DNA level at 0.5 uM preincubated for 10 mins followed by visible light irradiation for 5 to 15 mins by agarose gel electrophoresis; format: functional, organism-based
Escherichia coli [7] = experiment: Photodynamic inactivation of Escherichia coli ATCC 25922 assessed as reduction in cell survival at 5 uM preincubated for 10 mins followed by visible light irradiation for 15 mins; format: functional
Escherichia coli [8] = experiment: Photodynamic inactivation of Escherichia coli ATCC 25922 assessed as reduction in cell survival at 5 uM preincubated for 10 mins followed by visible light irradiation for 60 mins; format: functional
Escherichia coli [9] = experiment: Drug uptake in Escherichia coli ATCC 25922 at 5 uM after 10 mins by spectrofluorimetric analysis; format: ADME, organism-based; conditions: in vivo
Escherichia coli [10] = experiment: Photodynamic inactivation of Escherichia coli ATCC 25922 assessed as reduction in intracellular double stranded DNA concentration at 5 uM preincubated for 10 mins followed by visible light irradiation for 30 mins by fluorimetric analysis relative to control; format: functional; parameters: scale not given: the % may be the effect or the level left
Escherichia coli [11] = experiment: Photodynamic inactivation of Escherichia coli ATCC 25922 assessed as reduction in cell survival at 5 uM preincubated for 10 mins followed by visible light irradiation for 90 mins; format: functional
Staphylococcus warneri [12] = experiment: Photodynamic inactivation of Staphylococcus warneri assessed as reduction in cell survival at 0.5 uM preincubated for 10 mins followed by visible light irradiation for 30 mins; format: functional
Escherichia coli [13] = experiment: Photodynamic inactivation of Escherichia coli ATCC 25922 assessed as reduction in intracellular double stranded DNA concentration at 5 uM preincubated for 10 mins followed by visible light irradiation for 60 mins by fluorimetric analysis relative to control; format: functional; parameters: scale not given: the % may be the effect or the level left
Escherichia coli [14] = experiment: Photodynamic inactivation of Escherichia coli ATCC 25922 assessed as reduction in intracellular double stranded DNA concentration at 5 uM preincubated for 10 mins followed by visible light irradiation for 15 mins by fluorimetric analysis relative to control; format: functional; parameters: scale not given: the % may be the effect or the level left
Escherichia coli [15] = experiment: Drug uptake in Escherichia coli ATCC 25922 at 5 uM incubated for 10 mins followed by compound washout by spectrofluorimetric analysis relative to control; format: ADME, organism-based; conditions: in vivo
Staphylococcus warneri [16] = experiment: Photodynamic inactivation of Staphylococcus warneri assessed as reduction in intracellular double stranded DNA concentration at 0.5 uM preincubated for 10 mins followed by visible light irradiation for 30 mins by fluorimetric analysis relative to control; format: functional; parameters: scale not given: the % may be the effect or the level left
Escherichia coli [17] = experiment: Photodynamic inactivation of Escherichia coli ATCC 25922 assessed as reduction in rRNA level at 5 uM preincubated for 10 mins followed by visible light irradiation for 15 mins by agarose gel electrophoresis; format: functional, organism-based
Staphylococcus warneri [18] = experiment: Photodynamic inactivation of Staphylococcus warneri assessed as reduction in intracellular double stranded DNA concentration at 0.5 uM preincubated for 10 mins followed by visible light irradiation for 40 mins by fluorimetric analysis relative to control; format: functional; parameters: scale not given: the % may be the effect or the level left
Staphylococcus warneri [19] = experiment: Photodynamic inactivation of Staphylococcus warneri assessed as reduction in intracellular double stranded DNA concentration at 0.5 uM preincubated for 10 mins followed by visible light irradiation for 10 mins by fluorimetric analysis relative to control; format: functional; parameters: scale not given: the % may be the effect or the level left
Escherichia coli [20] = experiment: Photodynamic inactivation of Escherichia coli ATCC 25922 assessed as reduction in intracellular double stranded DNA concentration at 5 uM preincubated for 10 mins followed by visible light irradiation for 90 mins by fluorimetric analysis relative to control; format: functional; parameters: scale not given: the % may be the effect or the level left
Escherichia coli [21] = experiment: Photodynamic inactivation of Escherichia coli ATCC 25922 assessed as reduction in cell survival at 5 uM preincubated for 10 mins followed by visible light irradiation for 180 mins; format: functional
Staphylococcus warneri [22] = experiment: Drug uptake in Staphylococcus warneri at 0.5 uM incubated for 10 mins followed by compound washout by spectrofluorimetric analysis relative to control; format: ADME, organism-based; conditions: in vivo
Escherichia coli [23] = experiment: Photodynamic inactivation of Escherichia coli ATCC 25922 assessed as reduction in nucleic acid level at 5 uM preincubated for 10 mins followed by visible light irradiation for 60 mins by agarose gel electrophoresis; format: functional, organism-based
Staphylococcus warneri [24] = experiment: Photodynamic inactivation of Staphylococcus warneri assessed as reduction in cell survival at 0.5 uM preincubated for 10 mins followed by visible light irradiation for 5 mins; format: functional
Escherichia coli [25] = experiment: Photodynamic inactivation of Escherichia coli ATCC 25922 assessed as reduction in intracellular double stranded DNA concentration at 5 uM preincubated for 10 mins followed by visible light irradiation for 270 mins by fluorimetric analysis relative to control; format: functional; parameters: scale not given: the % may be the effect or the level left
Staphylococcus warneri [26] = experiment: Photodynamic inactivation of Staphylococcus warneri assessed as reduction in nucleic acid level at 0.5 uM preincubated for 10 mins followed by visible light irradiation for 20 to 40 mins by agarose gel electrophoresis; format: functional, organism-based
Staphylococcus warneri [27] = experiment: Photodynamic inactivation of Staphylococcus warneri assessed as reduction in cell survival at 0.5 uM preincubated for 10 mins followed by visible light irradiation for 20 mins; format: functional
Staphylococcus warneri [28] = experiment: Drug uptake in Staphylococcus warneri at 0.5 uM after 10 mins by spectrofluorimetric analysis; format: ADME, organism-based; conditions: in vivo
Escherichia coli [29] = experiment: Photodynamic inactivation of Escherichia coli ATCC 25922 assessed as reduction in cell survival at 5 uM preincubated for 10 mins followed by visible light irradiation at 8 J cm'-2 light dose; format: functional
Escherichia coli [30] = experiment: Photodynamic inactivation of Escherichia coli ATCC 25922 assessed as reduction in intracellular double stranded DNA concentration at 5 uM preincubated for 10 mins followed by visible light irradiation for 180 mins by fluorimetric analysis relative to control; format: functional; parameters: scale not given: the % may be the effect or the level left
Escherichia coli [31] = experiment: Photodynamic inactivation of Escherichia coli ATCC 25922 assessed as reduction in genomic DNA level at 5 uM preincubated for 10 mins followed by visible light irradiation for 15 mins by agarose gel electrophoresis; format: functional, organism-based
Staphylococcus warneri [32] = experiment: Photodynamic inactivation of Staphylococcus warneri assessed as reduction in intracellular double stranded DNA concentration at 0.5 uM preincubated for 10 mins followed by visible light irradiation for 20 mins by fluorimetric analysis relative to control; format: functional; parameters: scale not given: the % may be the effect or the level left
Staphylococcus warneri [33] = experiment: Photodynamic inactivation of Staphylococcus warneri assessed as reduction in intracellular double stranded DNA concentration at 0.5 uM preincubated for 10 mins followed by visible light irradiation for 15 mins by fluorimetric analysis relative to control; format: functional; parameters: scale not given: the % may be the effect or the level left
Staphylococcus warneri [34] = experiment: Photodynamic inactivation of Staphylococcus warneri assessed as reduction in intracellular double stranded DNA concentration at 0.5 uM preincubated for 10 mins followed by visible light irradiation by fluorimetric analysis; format: functional, organism-based; conditions: TDE = time-dependent effect
Staphylococcus warneri [35] = experiment: Photodynamic inactivation of Staphylococcus warneri assessed as reduction in intracellular double stranded DNA concentration at 0.5 uM preincubated for 10 mins followed by visible light irradiation for 5 mins by fluorimetric analysis relative to control; format: functional; parameters: scale not given: the % may be the effect or the level left
Escherichia coli [36] = experiment: Photodynamic inactivation of Escherichia coli ATCC 25922 assessed as reduction in degraded DNA and mRNA level at 5 uM preincubated for 10 mins followed by visible light irradiation for 30 mins by agarose gel electrophoresis; format: functional, organism-based
Escherichia coli [37] = experiment: Photodynamic inactivation of Escherichia coli ATCC 25922 assessed as reduction in intracellular double stranded DNA concentration at 5 uM preincubated for 10 mins followed by visible light irradiation by fluorimetric analysis; format: functional, organism-based; conditions: TDE = time-dependent effect
Escherichia coli [38] = experiment: Photodynamic inactivation of Escherichia coli ATCC 25922 assessed as reduction in cell survival at 5 uM preincubated for 10 mins followed by visible light irradiation for 30 mins; format: functional
Escherichia coli [39] = experiment: Photodynamic inactivation of Escherichia coli ATCC 25922 assessed as reduction in 16S rRNA level at 5 uM preincubated for 10 mins followed by visible light irradiation for 30 mins by agarose gel electrophoresis; format: functional, organism-based
Staphylococcus warneri [40] = experiment: Photodynamic inactivation of Staphylococcus warneri assessed as reduction in DNA level at 0.5 uM preincubated for 10 mins followed by visible light irradiation for 5 to 30 mins by agarose gel electrophoresis; format: functional, organism-based
Escherichia coli [41] = experiment: Photodynamic inactivation of Escherichia coli ATCC 25922 assessed as reduction in 23S rRNA level at 5 uM preincubated for 10 mins followed by visible light irradiation for 30 mins by agarose gel electrophoresis; format: functional, organism-based
Staphylococcus warneri [42] = experiment: Photodynamic inactivation of Staphylococcus warneri assessed as reduction in DNA level at 0.5 uM preincubated for 10 mins followed by visible light irradiation for 40 mins by agarose gel electrophoresis; format: functional, organism-based

SMILES | log10CFU/ml (Staphylococcus warneri [1]) | Activity (Staphylococcus warneri [2]) [%] | log10CFU/ml (Escherichia coli [3]) | log10CFU/ml (Staphylococcus warneri [4]) | log10CFU/ml (Staphylococcus warneri [5]) | log10CFU/ml (Escherichia coli [7]) | log10CFU/ml (Escherichia coli [8]) | Drug uptake (Escherichia coli [9]) | Activity (Escherichia coli [10]) [%] | log10CFU/ml (Escherichia coli [11]) | log10CFU/ml (Staphylococcus warneri [12]) | Activity (Escherichia coli [13]) [%] | Activity (Escherichia coli [14]) [%] | Drug uptake (Escherichia coli [15]) [%] | Activity (Staphylococcus warneri [16]) [%] | Activity (Escherichia coli [17]) | Activity (Staphylococcus warneri [18]) [%] | Activity (Staphylococcus warneri [19]) [%] | Activity (Escherichia coli [20]) [%] | log10CFU/ml (Escherichia coli [21]) | further results
C[n+]1ccc(-c2c3nc(c(-c4cc[n+](C)cc4)c4ccc([nH]4)c(-c4c(F)c(F)c(F)c(F)c4F)c4nc(c(-c5cc[n+](C)cc5)c5ccc2[nH]5)C=C4)C=C3)cc1.[I-].[I-].[I-] | 5.6 | 99.9 | 7.7 | 5.3 | 7.5 | 3.1 | 5.4 | Active | 55.1 | 5.8 | 7.2 | 98.4 | 23.1 | 47 | 91.9 | Active | 92.2 | 69.9 | 98.3 | 7.2 | Activity (Staphylococcus warneri [6]): Active; Drug uptake (Staphylococcus warneri [22]): 74%; Activity (Escherichia coli [23]): Active; log10CFU/ml (Staphylococcus warneri [24]): 4.8; Activity (Escherichia coli [25]): 99.6%; Activity (Staphylococcus warneri [26]): Active; log10CFU/ml (Staphylococcus warneri [27]): 6.9; Drug uptake (Staphylococcus warneri [28]): Active; Activity (Escherichia coli [29]): 99.9%; Activity (Escherichia coli [30]): 99.1%; Activity (Escherichia coli [31]): Active; Activity (Staphylococcus warneri [32]): 82.8%; Activity (Staphylococcus warneri [33]): 78%; Activity (Staphylococcus warneri [34]): tde; Activity (Staphylococcus warneri [35]): 66.2%; Activity (Escherichia coli [36]): Active; Activity (Escherichia coli [37]): tde; log10CFU/ml (Escherichia coli [38]): 5.2
C[n+]1ccc(-c2c3nc(c(-c4cc[n+](C)cc4)c4ccc([nH]4)c(-c4cc[n+](C)cc4)c4nc(c(-c5cc[n+](C)cc5)c5ccc2[nH]5)C=C4)C=C3)cc1.[I-].[I-].[I-].[I-] | 2.8 | 99.9 | 6.2 | 1.8 | 5.6 | 0.2 | 4.4 | Active | 42.8 | 5.7 | 4.7 | 81.2 | 14.3 | 35 | 45.3 |  | 58.2 | 37.9 | 99.8 | 6.1 | Drug uptake (Staphylococcus warneri [22]): 47%; log10CFU/ml (Staphylococcus warneri [24]): 0.4; Activity (Escherichia coli [25]): 99.8%; log10CFU/ml (Staphylococcus warneri [27]): 3.3; Drug uptake (Staphylococcus warneri [28]): Active; Activity (Escherichia coli [29]): 99.9%; Activity (Escherichia coli [30]): 99.8%; Activity (Staphylococcus warneri [32]): 38.3%; Activity (Staphylococcus warneri [33]): 38.1%; Activity (Staphylococcus warneri [35]): 19.6%; log10CFU/ml (Escherichia coli [38]): 2.9
C[n+]1ccc(-c2c3nc(c(-c4cc[n+](C)cc4)c4ccc([nH]4)c(-c4cc[n+](C)cc4)c4ccc([nH]4)c(-c4cc[n+](C)cc4)c4nc2C=C4)C=C3)cc1 |  |  |  |  |  |  |  |  |  |  |  |  |  |  |  | inactive |  |  |  |  | Activity (Escherichia coli [39]): Active; Activity (Staphylococcus warneri [40]): Active; Activity (Escherichia coli [41]): Active; Activity (Escherichia coli [23]): Active; Activity (Escherichia coli [31]): inactive; Activity (Staphylococcus warneri [42]): inactive; Activity (Escherichia coli [37]): tde
